Source: patent publication US8829175B2, “Nucleic acids encoding polyvalent protein complexes” (IBC Pharmaceuticals, Inc., priority 2003, dated 2014)
Starred links: 1 amine or outer side, 2 acyl side, 3 side chain; linkers in the order of their positions; H or OH if unused. Non-standard residues stand in square brackets, D forms with d. Residues, ends and D or L forms follow the SMILES beside them. Groups on a side chain read outwards from the residue. *: point of attachment. DOTA = O=C(O)CN1CCN(CC(=O)O)CCN(CC(=O)*)CCN(CC(=O)O)CC1; NH(2-(imidazol-4-yl)ethyl) = c1ncc(CCN*)[nH]1; Suc = O=C(CCC(=O)[*:2])[*:1]; X1 = NC(=S)NN=CC(=O)*

How the values were obtained:
[1] = in vivo; parameters: species or system nude mice; conditions: nude, mouse
Method: (§1) IMP-245 was prepared and labeled using standard techniques known in the art. See, for example, published application US20030198595 (now issued U.S. Pat. No. 7,138,103), which is hereby incorporated by reference in its entirety. The experiment used 3 groups of 15 mice, each of which was necropsied, and 1 group of 5 mice that was imaged. Three groups of mice were administered 6 μCi ^125I-hBS14 (40 μg, 5.0×10^−10 moles). In the last group (imaging group), 3 mice received unlabeled hBS14. The amount of ^99mTc-IMP-245 administered to all the mice was ˜40 μCi (92 ng, 5.0×10^−11 moles) for a bispecific:peptide ratio of 10:1. […] Due to differences in tumor growth rates, only 20 mice were initially available for administration of hBS14. Fifteen mice were used to fill out Group II while 5 mice were used for Group I. The remaining mice (including the imaged mice) were injected one week later. Not all the mice implanted with GW-39 tumors developed usable tumors and, therefore, Group I only had 10 mice and were sacrificed at 1 hr post-peptide injection and 24 hrs post-injection.

[2] = tested on: human colonic tumor (GW-39) xenograft; test: in vivo; parameters: species or system nude mice; conditions: mouse
Method: as §1

[3] = tested on: GW-39 (CEA positive) tumors; parameters: species or system nude mice; conditions: mouse, in vivo
Method: The utility of BS14HP for tumor pretargeting was evaluated in GW-39 tumor-bearing mice using a bivalent HSG peptide (IMP-241) labeled with ^111In. IMP-241 has a structure of DOTA-Phe-Lys(HSG)-D-Tyr-Lys(HSG)-NH2, where the N-terminal amino group of Phe is linked to a DOTA and the epsilon amino group of each lysine is derivatived with an HSG group. The tetrapeptide backbone (Phe-Lys-(D-Tyr)-Lys) contains a d-amino acid (D-Tyr) and the carboxyl group of the C-terminal lys is amidated.
(§2) The results from this analysis were compared with those of chemically linked hMN-14×679 (Fab′×Fab′) and BS1.5H (bispecific diabody). Nude mice bearing GW-39 (CEA positive) tumors were pre-targeted with BS14HP, BS1.5H or hMN-14×679. Initially, the bio-distribution was followed with ^131I-labeled bispecific agent. The tumor residence and blood clearance of ^131I-BS14HP is depicted in FIG. 7. As determined in preliminary experiments, the time interval between administration of bispecific targeting agent and of ^111In-IMP241 peptide is the amount of time required for the former to clear the blood to a concentration of 1% ID/g or less. […] IMP-241 (Immunomedics, Inc), a peptide containing two HSG groups and a DOTA moiety, was loaded with ^111Indium and injected in pre-targeted mice. The bio-distribution of the ^111In-IMP-241 was examined at 3 hours after injection (FIG. 8A) and the tumor/non-tumor ratios are shown in FIG. 8B.

[4] = tested on: WI2 IgG, an anti idiotypic antibody to hMN-14; test: BIAcore WI2 molar binding ratio of bispecific protein captured on HSG sensorchip; parameters: species or system rat; conditions: protein bound to HSG sensorchip, then WI2; theoretical maximum 1.0 for two CEA binding sites
Method: The analysis step is as follows. Samples of the culture media were diluted 1:5 in EB buffer (150 mM NaCl; 50 μM EDTA; 0.005% surfactant P20; 10 mM HEPES, pH 7.4) and injected ([…]) over a high-density, HSG-coupled sensorchip in a BIAcoreX system. Following injection of the diluted media, EB containing 20 μg/ml of WI2 IgG, an anti idiotypic antibody to hMN-14, was injected ([…]) over the sensorchip to confirm bispecific binding. The initial binding slopes were used to quantitate yields. Seven of the nine zeocin resistant clones tested produced bispecific protein with a yield of up to 3 mg per liter of culture media.
The W12:BS14HP molar binding ratio can be derived by comparison of the response units (RU) attained from BS14HP binding to the HSG sensorchip with the further RU increase from W12 binding to BS14HP with normalization for the respective molecular weights. Several BS14HP preps were analyzed with the measured ratio ranging from 0.8-0.9. […]
If the W12 binding is allowed to approach saturation, the stoichiometry of the binding can be determined. […] As each increase in RU level is directly proportional to the mass bound, the WI2:bsAb molar binding ratio can be calculated using the formula (RUWI2/RUhBS14)×(MWhBS14/MWWI2). hBS14 was designed to be bivalent for CEA (and monovalent for HSG) and as such should bind W12 (also bivalent) with a 1:1 molar ratio. […]

[5] = Blood clearance of radioiodinated bispecific agents in GW-39 tumor-bearing nude mice; type: in vivo; conditions: 131I-labeled bispecific agent, preliminary experiments
Source text: as §2

## NC(=O)[C@H](CCCCNC(=O)[C@H](CS)NC(=O)C=NNC(N)=S)NC(=O)[C@H](CCCCNC(=O)CNC(=O)CCC(=O)NCCc1c[nH]cn1)NC(=O)[C@@H](Cc1ccc(O)cc1)NC(=O)[C@H](CCCCNC(=O)CNC(=O)CCC(=O)NCCc1c[nH]cn1)NC(=O)[C@H](Cc1ccccc1)NC(=O)CN1CCN(CC(=O)O)CCN(CC(=O)O)CCN(CC(=O)O)CC1 [IMP-245] ({DOTA}-FK([Gly-Suc-NH(2-(imidazol-4-yl)ethyl)])[dY]K([Gly-Suc-NH(2-(imidazol-4-yl)ethyl)])K([Cys-X1])-NH2; N-terminus and C-terminus assumed)
[1]
  tissue uptake at 1 h: 36.9 ± 6.42 %ID/g
  tissue uptake at 24 h: 3.81 ± 0.8 %ID/g
[1]; 92 ng
  tissue uptake at 24 h: 3.71 ± 0.43 %ID/g
[1]; 92 ng, tumor uptake
  tissue uptake at 24 h: 0.3 ± 0.08 %ID/g
[1]; tumor uptake
  tissue uptake at 4 h: 15.9 ± 16.3 %ID/g
[2]
  fold less peptide than hBS14 in the tumor: 4.7 fold
  fold more IMP-245 in the tumor versus hBS14: 2.4 fold
  fold more IMP-245 than hBS14 in the tumors: Approximately 2 fold
  relative amount of actual signal in the tumors, fold less: 13 fold
[2]; nude, 4 h
  tumor uptake: 14.53±4.90 % ID/g

## NC(=O)[C@@H](CCCCNC(=O)CNC(=O)CCC(=O)NCCc1cnc[nH]1)NC(=O)[C@@H](Cc1ccc(O)cc1)NC(=O)[C@@H](CCCCNC(=O)CNC(=O)CCC(=O)NCCc1cnc[nH]1)NC(=O)[C@@H](Cc1ccccc1)NC(=O)CN1CCN(CC(=O)O)CCN(CC(=O)O)CCN(CC(=O)O)CC1 [IMP284] ({DOTA}-[dF][dK]([Gly-Suc-NH(2-(imidazol-4-yl)ethyl)])[dY][dK]([Gly-Suc-NH(2-(imidazol-4-yl)ethyl)])-NH2)
[3]
  pretargeting experiments performed again with other peptides: same results

## NC(=O)[C@@H](CCCCNC(=O)CNC(=O)CCC(=O)NCCc1c[nH]cn1)NC(=O)[C@@H](CCC(=O)O)NC(=O)[C@@H](CCCCNC(=O)CNC(=O)CCC(=O)NCCc1c[nH]cn1)NC(=O)[C@@H](Cc1ccc(O)cc1)NC(=O)CN1CCN(CC(=O)O)CCN(CC(=O)O)CCN(CC(=O)O)CC1 [IMP288] ({DOTA}-[dY][dK]([Gly-Suc-NH(2-(imidazol-4-yl)ethyl)])[dE][dK]([Gly-Suc-NH(2-(imidazol-4-yl)ethyl)])-NH2)
[3]
  pretargeting experiments performed again with other peptides: same results

## C[C@@H](NC(=O)CN1CCN(CC(=O)O)CCN(CC(=O)O)CCN(CC(=O)O)CC1)C(=O)N[C@H](CCCCNC(=O)CNC(=O)CCC(=O)NCCc1cnc[nH]1)C(=O)N[C@H](CCC(=O)O)C(=O)N[C@H](CCCCNC(=O)CNC(=O)CCC(=O)NCCc1cnc[nH]1)C(N)=O [IMP281] ({DOTA}-[dA][dK]([Gly-Suc-NH(2-(imidazol-4-yl)ethyl)])[dE][dK]([Gly-Suc-NH(2-(imidazol-4-yl)ethyl)])-NH2)
[3]
  pretargeting experiments performed again with other peptides: same results

B1: BS14HP: bispecific trivalent heterodimer (SEQ ID NO:1 and 2) from Pichia pastoris, two binding sites for CEA and one for HSG (antibody)
heavy: EAEAEFMEVQLVESGGDLVKPGGSLKLSCAASGFTFSIYTMSWLRQTPGKGLEWVATLSGDGDDIYYPDSVKGRFTISRDNAKNSLYLQMNSLRAEDTALYYCARVRLGDWDFDVWGQGTTVSVSSGGGGSDIQLTQSPSSLSASVGDRVTITCKASQDVGTSVAWYQQKPGKAPKLLIYWTSTRHTGVPSRFSGSGSGTDFTFTISSLQPEDIATYYCQQYSLYRSFGQGTKVEIKRLEGGGSEVQLVESGGGVVQPGRSLRLSCSASGFDFTTYWMSWVRQAPGKGLEWIGEIHPDSSTINYAPSLKDRFTISRDNAKNTLFLQMDSLRPEDTGVYFCASLYFGFPWFAYWGQGTPVTVSVDHHHHHH
light: EAEAEFDIQLTQSPSSLSASVGDRVTITCKASQDVGTSVAWYQQKPGKAPKLLIYWTSTRHTGVPSRFSGSGSGTDFTFTISSLQPEDIATYYCQQYSLYRSFGQGTKVEIKRGGGQFMEVQLVESGGGVVQPGRSLRLSCSASGFDFTTYWMSWVRQAPGKGLEWIGEIHPDSSTINYAPSLKDRFTISRDNAKNTLFLQMDSLRPEDTGVYFCASLYFGFPWFAYWGQGTPVTVSGGGGSDIVMTQSPSSLAVSPGERVTLTCKSSQSLFNSRTRKNYLGWYQQKPGQSPKLLIYWASTRESGVPDRFSGSGSGTDFTLTINSLQAEDVAVYYCTQVYYLCTFGAGTKLELKRLDHHHHHH
[4]
  WI2:bsAb molar binding ratio: 0.8-0.9
[5]
  pre-targeting clearance time (time to clear the blood to 1% ID/g or less): 24 h
[3]
  111In-IMP241 peptide specifically bound to the tumor, compared to mice pretargeted with BS1.5H or hMN14×679: approximately three-fold
